# Earlier results, collected in patent publication US20060275243A1, “Cosmetic or therapeutic combination preparation with theanine” (ROVI GmbH & Co. Kosmetische Rohstoffe KG, priority 2005, published 2006).
# Settings: investigations referred to in the description
compound,measurement,value
CCNC(=O)CC[C@H](N)C(=O)O [theanine],effect on the cramp-triggering effect of caffeine,can inhibit the cramp-triggering effect of caffeine
